Measured values published in the METLIN SMRT retention time set (Domingo-Almenara et al. 2019).

assay: gradient 5% acetonitrile 3 min, to 50% in 2 min, to 85% in 15 min, held 3 min, 100 µL/min; details: column: Zorbax Extend-C18 2.1 x 50 mm; eluents: water / acetonitrile, 0.1% formic acid
Summary of the method: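 Retention times of pure standards were taken from adduct peaks that were selected by computer and manually inspected. Over 3 months, mixtures of ~100 molecules were run by HPLC–quadrupole time-of-flight mass spectrometry in positive and negative ionization mode. The Zorbax Extend-C18 column (2.1 × 50 mm, 1.8 μm) ran at 100 μL/min in water and acetonitrile, each containing 0.1% formic acid, with 40 μL dead volume and 900 μL dwell volume.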

SMILES	RP-LC retention time [s]
CCc1nc(OCC(=O)NCc2ccc(C)cc2)c2c(C)c(C)oc2n1	999
CCN1c2cc(F)ccc2C(=O)NC12CCN(C(=O)c1ccc(C)cc1)CC2	807
Cc1ccsc1C(=O)Nc1cccc(OCc2nnc(-c3ccc(F)cc3)o2)c1	981
CCCCn1c(=O)c2ccccc2n(Cc2nc(-c3ccccc3)no2)c1=O	1140
Cc1cc(C)c(CN2CCC(N3CCN(Cc4nc(C)no4)C3=O)C2)c(C)c1 (stereo not drawn)	672
CCN1C(=O)C(C)(C(=O)NCc2ccc(Br)cc2)Oc2cccnc21 (stereo not drawn)	916
CC1(C)C(=O)N(CC(=O)Nc2cccc(Br)c2)c2ccccc21	968
Cc1cc(Nc2ccccc2)nc(N2CCN(C(=O)Nc3cccc(Cl)c3)CC2)n1	763
O=C(Cn1cnc2c(sc3nc(-c4ccccc4)ccc32)c1=O)NCc1ccc(Cl)cc1	1070
O=C(CN1C(=O)c2ccccc2C1=O)Nc1ccc2c(c1)N(C(=O)c1ccco1)CCC2	738
Cc1cccc(CC(=O)N2C[C@@H]3C[C@H]2C[C@@H]3NC(=O)c2cccs2)c1	778
COc1ccc(N2C(=O)C3N=NN(Cc4nc(-c5ccccc5)no4)C3C2=O)cc1 (stereo not drawn)	912
CCCN1C(=O)c2c(C(=O)NCc3cccc(F)c3)ncn2CC1(C)C(=O)NCCC(C)C (stereo not drawn)	843
O=C(NCCN1CCOCC1)c1ccc(Nc2c(-c3ccc(Cl)cc3)nc3cnccn23)cc1	620
Cc1ccc(C(=O)Nc2c(C(=O)NCc3ccc4c(c3)OCO4)[nH]c3ccc(C)cc23)cc1	979
COCCN1C(=O)c2ccccc2C(C(=O)NCC2COc3ccccc3O2)C1c1ccc(F)cc1 (stereo not drawn)	954
O=C(Cn1nc2c(SC3CCCCC3)nccn2c1=O)N1CCN(c2ccccc2)CC1	1110
O=C(C1CCCN(c2nnc3ccc(Cl)cn23)C1)N1CCN(C2CCCCC2)CC1 (stereo not drawn)	525
CC(C)N1CCN(C(=O)c2ccc(-c3cccs3)nc2)CC1	588

SMILES	RP-LC retention time [s]
O=C(CN1CCN(C(=O)N2CCCCC2)CC1)Nc1cc(Cl)ccc1Cl	675
Cc1ccc(Cl)cc1N1CCN(c2cc(C(=O)O)c3cc(NC(=O)C(C)C)ccc3n2)CC1	746
Cc1ccccc1-c1nc(Cn2ccnc2)no1	609
O=C(Nc1ccccc1F)C1CCc2nc(N3CCCCC3)ncc2C1 (stereo not drawn)	772
Cc1cc(C)c2c(-n3cccc3)nn(CC(=O)NC3CCCCCC3)c2n1	1050
Cn1cc(-c2ccncc2)cc1C(=O)N1CCC2(CC1)OCCO2	562
CCOc1cccc(NC2=NS(=O)(=O)c3ccccc32)c1	843
Cc1cccc(-c2nnc(C)c(N3CCOCC3)n2)c1	645
CC(=O)O[C@]1(C(C)=O)CC[C@H]2[C@@H]3CCC4=CC(=O)CCC4=C3[C@@H](c3ccc(N(C)C)cc3)C[C@@]21C	874
O=C(CF)N(O)c1ccc(/C=C/c2ccccc2)cc1	959
O=C(Nc1cccc(C(=O)N2CCN(c3ccc(Cl)cc3)CC2)c1)C1=CSCCO1	955
Cc1nc(C(=O)Nc2ccc(Cl)cc2C)c(C)o1	1030
O=C(NCCCn1c(C(F)(F)F)nc2cccnc21)Nc1cccc(F)c1	811
Cc1ccn2cc(C(=O)NC(C)c3ccc(F)cc3)nc2c1 (stereo not drawn)	670
Cn1ncc2c3ccccc3n(CCCC(=O)N3CCN(Cc4ccccc4)CC3)c2c1=O	646
CC1=NN(c2nc3ccccc3[nH]2)C(=O)C1Cc1ccccc1 (stereo not drawn)	796
CC(Oc1cccc2ccccc12)c1nc2c3ccccc3ncn2n1 (stereo not drawn)	1090
CN(C)c1ccc2ncc(=O)n(C)c2n1	728
Cn1cc(-c2ccccc2)c2c1c(=O)n(C)c1nn(Cc3nc(-c4ccccc4)no3)c(=O)n21	1040

SMILES	RP-LC retention time [s]
O=C(Nc1ccc(F)cc1)N1CCCC1c1nc(-c2cccc(F)c2)no1 (stereo not drawn)	965
O=C(Cc1cccs1)N1CCc2cc(-c3csc(C4CC4)n3)ccc21	1120
Cc1ccc(NC(=O)c2sc(-n3cccc3)nc2C(C)C)cc1F	1320
O=C(CCNc1c(-c2ccc(F)cc2)nc2cnccn12)Nc1ccc2c(c1)OCO2	727
Cc1ccc(CN2C[C@@H]3C(=O)N(Cc4ccc5c(c4)OCO5)C(=O)[C@@H]3C2)c(C)c1	857
COc1ccc(-c2ncc3c(n2)CCN(C(=O)Nc2ccc(C)cc2C)C3)cc1	644
Cc1cc(CNC(=O)C(=O)Nc2cc(Cl)ccc2C#N)c(C)o1	958
O=C(c1cnn(-c2ccccc2)c1-n1cccc1)N1CCN(c2ccccn2)CC1	623
O=C(Cc1nnc(-c2ccc3ncccc3c2)o1)NCc1cccc(Cl)c1	722
CCCn1cc(CCNS(=O)(=O)c2ccc(F)cc2Cl)c2cccnc21	877
O=C(CCc1csc(NC(=O)c2ccc(F)cc2)n1)NCCn1ncccc1=O	624
O=C(Nc1ccc2c(c1)OCO2)c1noc2c1CCCCC2	967
CCc1noc(C2(NC(=O)c3cccc(N(C)C)c3)CCCCC2)n1	867
Nc1ccc(Nc2nc(-c3ccc(Cl)cc3)cs2)cc1	947
COc1cc(OC)c(NC(=O)NCCCn2c(C(F)(F)F)nc3cccnc32)cc1Cl	836
COc1ccc(-c2nc(-c3ccc4c(c3)oc(=O)n4C)no2)c(C)c1	1100
Cc1nc(CN2CC(c3nc(-c4cccs4)no3)C2)cs1	568
CC(=O)c1cccc(NC(=O)c2cc(C)nc3ccccc23)c1	654
O=C(c1ccc(F)c(F)c1)N1CCN(c2cc(-c3ccc(F)cc3)[nH]n2)CC1	837

Second part, the compound after the results:

RP-LC retention time [s]	SMILES
677	CCC(C)OC(=O)C1=C(C)NC(=O)NC1c1ccc(O)c(OC)c1 (stereo not drawn)
614	Cc1ccnc(NC(=O)C2CCCN(S(=O)(=O)c3c[nH]c(C(=O)N4CCCC4)c3)C2)c1 (stereo not drawn)
962	Cc1ccc(CNC(=O)C2(C)CN(S(=O)(=O)c3ccccc3)CC(=O)N2c2cccc(F)c2)cc1 (stereo not drawn)
766	CCN1CCn2cc(S(=O)(=O)Nc3ccc(Cl)cc3)cc2C1=O
636	CCC(=O)N(C1CCOCC1)C1CCN(Cc2ccc(C)cc2C)CC1
852	CCC1CN(C(=O)N2CCC(C(=O)NCCc3ccco3)CC2)c2ccccc2O1 (stereo not drawn)
861	CCNC(=O)C1CCN(c2nc3ccc(-c4ccc(F)cc4)nc3s2)CC1
827	Cc1ccc(CNC(=O)c2ncn3c2C(=O)N(C2CC2)C(C)(C(=O)NCc2cccc(C)c2)C3)cc1 (stereo not drawn)
882	Cc1cc(Cl)ccc1NC(=O)C1CCN(S(C)(=O)=O)c2ccccc2O1 (stereo not drawn)
693	COC(=O)c1ccc2c(=O)n(-c3ccccc3)c(N3CCC(C(N)=O)CC3)nc2c1
680	Cc1nn(C(C)C(=O)NCCN2CCCCC2C)c(=O)c2c1sc1ccccc12 (stereo not drawn)
751	Cn1cc(S(=O)(=O)N2CCC(C(=O)Nc3cccc(C#N)c3)CC2)cc1C(=O)N1CCCC1
723	Cc1cccc(CNC(=O)C2CCc3nc(N4CCOCC4)ncc3C2)c1 (stereo not drawn)
635	Cc1cccc(C)c1NC(=O)N1CCC(c2cc(=O)n3nccc3n2C)CC1
661	CNC(=O)C1CCCN(c2nc3ncn(CC(=O)Nc4c(C)cccc4C)c(=O)c3s2)C1 (stereo not drawn)
796	CCNC(=O)C1CCN(S(=O)(=O)c2ccc(OCC)c(C)c2)CC1

RP-LC retention time [s]	SMILES
878	CCn1ccc2oc(C)c(C(=O)NCc3cc(C)ccc3C)c2c1=O
771	O=C(NCc1ccco1)C1CCCN(S(=O)(=O)c2c[nH]c(C(=O)N3CCCCCC3)c2)C1 (stereo not drawn)
966	CCOC(=O)C1CCN(c2ccc3nnc(CCc4nc(-c5ccc(F)cc5)no4)n3n2)CC1
814	Cc1cc(C)cc(N2CCC(NC(=O)CC(C)C)C2=O)c1 (stereo not drawn)
575	CCOC(=O)C1CCN(C(=O)c2cn3c(n2)CN(CC)CC3)CC1
779	CCc1ccc(S(=O)(=O)N2CCC3(CC2)NCCN=C3NCc2ccccc2OC)cc1
818	CC(C)n1c(N2CCN(C(=O)Cc3ccc(F)cc3)CC2)cc(=O)n(C(C)C)c1=O
721	O=C(NCc1ccco1)C1CCCN(c2nc3ccccc3[nH]c2=O)C1 (stereo not drawn)
925	COc1ccccc1-c1noc(C2CCCN2C(=O)Nc2ccc(C)c(C)c2)n1 (stereo not drawn)
819	Cc1noc(-c2cc(=O)n(CC(=O)NC3CCCCC3)c3ccccc23)n1
1270	Cc1ccc(-c2noc(C3CCCN3S(=O)(=O)c3cccc(Cl)c3C)n2)cc1 (stereo not drawn)
854	Cc1ccc(N(C)S(=O)(=O)c2ccc3c(c2)CCCC(=O)N3)cc1C
572	Cc1cn(C)c(CC(=O)NCCN2CCOCC2)c1C(=O)O
708	Cc1ccc(NC(=O)Cn2nc3n(c2=O)CCCCC3)cc1
643	CCN1CCN(C(=O)CN2C(=O)CCCc3cc(S(=O)(=O)N4CCC(C)CC4)ccc32)CC1
